# Experimental data reported in paper PMC9270327 (Communications Biology, 2022).
# Where “and” joins values, the source holds several entries; their conditions need not be identical. Equal entries are not always repeated. Structures can show the parent of a compound that is named as a salt. Where two headings read alike, the source gives them in different places.
# Columns and labels:
# [1] = target: T1, recombinant human thrombin (Homo sapiens, UniProt P00734); assay: Enzyme inhibition assay with purified thrombin (Ki, dose-response); assay type: biochemical; settings: normalized
# T1 construct: purchased R&D Systems (Minneapolis, MN, USA)
# Text: (§1) Recombinant human TMPRSS2 was purchased from Creative BioMart (New York, USA) or LSBio (Seattle, USA), factor Xa was obtained from Bio-Techne GmbH (Wiesbaden, Germany). Recombinant human thrombin and matriptase protein were purchased from R&D Systems (Minneapolis, MN, USA).
# [2] = target: T2, factor Xa (Homo sapiens, UniProt P00742); assay: Enzyme inhibition assay with purified factor Xa (Ki, dose-response); assay type: biochemical; settings: for factor Xa activity, Mean (Fig. 2d): normalized
# T2 construct: purchased Bio-Techne GmbH (Wiesbaden, Germany)
# Text: as §1
# [3] = target: cellular TMPRSS2 activity, Caco-2 cells (Homo sapiens, UniProt O15393); settings: normalized, 0 nM = 100
# Method: (§2) In total, 10,000 Caco-2 cells (ATCC) in 100 µL EMEM medium supplemented with 10% FBS, 100 U/mL penicillin, […] streptomycin, and 2 mM glutamine (all Invitrogen, Germany) were seeded per well in a 96-well plate and incubated at 37 °C for 4 days until full confluency of the cells. The cells were washed two times with PBS and EMEM medium without FBS was added. […] The fluorescence intensity was measured as described above. In all, 20,000 HEK293T cells (ATCC) were seeded in 100 µL DMEM supplemented with 10% FBS, 100 U/mL penicillin, […] streptomycin, and 2 mM glutamine. […] After 14 h, transfection mix was removed from the cells and 80 µL fresh medium without FBS and 10 µL inhibitors were added (final concentration 50 µM). […] Fluorescence intensity was measured after 2 h at 37 °C as described above.
# [4] = target: T3, TMPRSS2 expressed in HEK293T cells (Homo sapiens, UniProt O15393); assay: Inhibition of cellular TMPRSS2 activity on HEK293T cells transiently expressing TMPRSS2; assay type: cell-based; settings: 2 h, corrected for mock-transfected cells
# T3 construct: host or cells: HEK293T (ATCC)
# Method: as §2, with “After 14 h, transfection mix was removed from the cells and 80 µL fresh medium without FBS and 10 µL inhibitors were added (final concentration 50 µM).” left out
# [5] = system: lentiviral pseudoparticles carrying SARS-CoV-2 Delta (B.1.617.2) spike, Caco-2 cells; assay type: cell-based; settings: for SARS-CoV-2 spike driven entry, Mean (0 nM = 100): Fig. 5d
# [6] = system: lentiviral pseudoparticles carrying SARS-CoV-2 Omicron BA.1 (B.1.1.529) spike, Caco-2 cells; assay type: cell-based
# [7] = system: SARS-CoV-2 Alpha (B.1.1.7), Caco-2 cells; assay type: cell-based
# [8] = target: TMPRSS2 (Homo sapiens, UniProt O15393); assay: Cell culture medium stability: residual TMPRSS2 inhibition after incubation in medium
# TMPRSS2, sequence (O15393 whole entry): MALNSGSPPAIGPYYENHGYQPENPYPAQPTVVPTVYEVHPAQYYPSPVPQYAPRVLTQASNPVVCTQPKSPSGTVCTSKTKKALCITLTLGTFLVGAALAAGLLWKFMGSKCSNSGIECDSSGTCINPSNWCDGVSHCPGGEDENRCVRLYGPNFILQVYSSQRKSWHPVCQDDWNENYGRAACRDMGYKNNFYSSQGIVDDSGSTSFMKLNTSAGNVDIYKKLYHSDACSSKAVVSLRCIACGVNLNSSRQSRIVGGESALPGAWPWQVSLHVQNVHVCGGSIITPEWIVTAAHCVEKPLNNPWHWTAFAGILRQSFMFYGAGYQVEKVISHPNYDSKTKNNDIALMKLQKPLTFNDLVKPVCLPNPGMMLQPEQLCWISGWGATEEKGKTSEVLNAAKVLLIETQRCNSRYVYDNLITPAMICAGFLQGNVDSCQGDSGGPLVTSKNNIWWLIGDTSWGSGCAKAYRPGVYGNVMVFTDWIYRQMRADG
# Method: The activity of the compounds against the recombinant human enzymes was determined in enzyme inhibition assays. […] The measurements were performed on a Tecan infinite® M1000 and the fluorescence intensity was measured by exciting the AMC fluorophore at 380 nm wavelength and recording emission at 460 nm wavelength. […] Fluorescence intensities and absorption were measured every 2 min for 2 h or as endpoint after 2 h. […] To determine the IC50 values, the concentration-response data were plotted with the program GraphPad prism version 8.4.2 (San Diego, California) and a nonlinear regression fit with the equation [Inhibitor] vs. normalized response was applied. The inhibitory constant Ki was calculated from the IC50 values using the Cheng–Prusoff equation (Ki = IC50/[S]/KM) for competitive reversible inhibitors[66].
# The stability of the inhibitors was measured according to a modified procedure from ref. [67]. […] At indicated timepoints, 100 µL samples were taken and mixed with 200 µL of ethanol to precipitate proteins. […] The supernatant was aspirated and analyzed using analytical HPLC. The residual inhibitory constants Ki after incubation was assessed by mixing serial dilutions of the inhibitor with recombinant TMPRSS2 as described above.
# were mixed with recombinant TMPRSS2, followed by the addition of the fluorogenic reference
# Shown are the means ± SD of n=1 experiment performed in triplicates.
# T2 sequence (P00742 235-488 limits assumed): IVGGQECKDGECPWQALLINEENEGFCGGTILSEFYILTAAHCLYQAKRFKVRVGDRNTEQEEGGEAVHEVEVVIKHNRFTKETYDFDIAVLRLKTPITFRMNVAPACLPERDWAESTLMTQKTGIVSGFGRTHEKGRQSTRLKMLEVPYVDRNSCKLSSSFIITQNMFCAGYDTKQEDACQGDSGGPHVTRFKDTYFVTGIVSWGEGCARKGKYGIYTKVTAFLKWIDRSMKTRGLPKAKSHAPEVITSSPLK
# T2 sequence (P00742 41-179 partner limits assumed): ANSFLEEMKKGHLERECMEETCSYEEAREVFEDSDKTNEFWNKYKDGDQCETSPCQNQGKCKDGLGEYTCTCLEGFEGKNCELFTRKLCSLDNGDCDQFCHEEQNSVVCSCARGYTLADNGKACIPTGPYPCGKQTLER
# cellular TMPRSS2 activity, Caco-2 cells, sequence (O15393 whole entry): as the sequence (O15393 whole entry) above
# T3 sequence (O15393 whole entry): as above
smiles,measurement,setting,value
"CN(C)C(=O)COC(=O)Cc1ccc(OC(=O)c2ccc(NC(=N)N)cc2)cc1 [CM, camostat mesylate, reference compound]","thrombin activity, Mean (Fig. 2c)",[1]; 0.01 nM,98.2939
same,"thrombin activity, Mean (Fig. 2c)","[1]; 0.02 nM, 0 nM = 100",99.8688
same,"thrombin activity, Mean (Fig. 2c)","[1]; 0.04 nM, 0 nM = 100",100.525
same,"thrombin activity, Mean (Fig. 2c)","[1]; 0.2 nM, 0 nM = 100",103.675
same,"thrombin activity, Mean (Fig. 2c)","[1]; 2 nM, 0 nM = 100",103.806
same,"thrombin activity, Mean (Fig. 2c)","[1]; 20 nM, 0 nM = 100",105.906
same,"thrombin activity, Mean (Fig. 2c)","[1]; 10000 nM, 0 nM = 100",73.8845
same,"thrombin activity, Mean (Fig. 2c)","[1]; 100000 nM, 0 nM = 100",23.2283
same,"factor Xa activity, Mean (Fig. 2d)","[2]; 0.04 nM, 0 nM = 100",85.6127
same,"factor Xa activity, Mean (Fig. 2d)","[2]; 0.2 nM, 0 nM = 100",89.6222
same,"factor Xa activity, Mean (Fig. 2d)","[2]; 2 nM, 0 nM = 100",92.4525
same,"factor Xa activity, Mean (Fig. 2d)","[2]; 20 nM, 0 nM = 100",96.9338
same,"factor Xa activity, Mean (Fig. 2d)","[2]; 200 nM, 0 nM = 100",78.0652
same,"factor Xa activity, Mean (Fig. 2d)",[2]; 1000 nM,72.1688
same,"factor Xa activity, Mean (Fig. 2d)","[2]; 10000 nM, 0 nM = 100",33.4905
same,"factor Xa activity, Mean (Fig. 2d)","[2]; 100000 nM, 0 nM = 100",14.8585
same,Ki,"[2]; 30 min preincubation, substrate Bz-Ile-Glu-Gly-Arg-pNA",1790 nM
same,"cellular protease activity on Caco-2 cells, Mean (Fig. 4a)",[3]; 0.1 nM,103.704
same,"cellular protease activity on Caco-2 cells, Mean (Fig. 4a)",[3]; 1 nM,98.7654
same,"cellular protease activity on Caco-2 cells, Mean (Fig. 4a)",[3]; 10 nM,63.4921
same,"cellular protease activity on Caco-2 cells, Mean (Fig. 4a)",[3]; 100 nM,38.9771
same,"cellular protease activity on Caco-2 cells, Mean (Fig. 4a)",[3]; 1000 nM,21.8695
same,"cellular protease activity on Caco-2 cells, Mean (Fig. 4a)",[3]; 10000 nM,6.173
same,"cellular protease activity on Caco-2 cells, Mean (Fig. 4a)",[3]; 100000 nM,1.764
same,"normalized fluorescence intensity, HEK293T TMPRSS2, Mean (Fig. 4b)",[4]; 0.5 nM,47.42
same,"normalized fluorescence intensity, HEK293T TMPRSS2, Mean (Fig. 4b)",[4]; 5 nM,43.185
same,"normalized fluorescence intensity, HEK293T TMPRSS2, Mean (Fig. 4b)",[4]; 50 nM,9.45
same,"normalized fluorescence intensity, HEK293T TMPRSS2, Mean (Fig. 4b)",[4]; 500 nM,8.435
same,"normalized fluorescence intensity, HEK293T TMPRSS2, Mean (Fig. 4b)",[4]; 5000 nM,0.32
same,"normalized fluorescence intensity, HEK293T TMPRSS2, Mean (Fig. 4b)",[4]; 50000 nM,-3.52
same,IC50,"[5]; Caco-2 cells, luciferase 2 days post transduction, read-out: IC50 pseudotyped lentivirus Delta",85.5 nM
same,"SARS-CoV-2 spike driven entry, Mean (0 nM = 100)",[5]; compound 3.2 nM,83.3031
same,"SARS-CoV-2 spike driven entry, Mean (0 nM = 100)",[5]; compound 16 nM,73.1168
same,"SARS-CoV-2 spike driven entry, Mean (0 nM = 100)",[5]; compound 80 nM,52.0145
same,"SARS-CoV-2 spike driven entry, Mean (0 nM = 100)",[5]; compound 400 nM,29.5018
same,"SARS-CoV-2 spike driven entry, Mean (0 nM = 100)",[5]; compound 2000 nM,11.0315
same,"SARS-CoV-2 spike driven entry, Mean (0 nM = 100)",[5]; compound 10000 nM,3.058
same,"SARS-CoV-2 spike driven entry, Mean (0 nM = 100)",[5]; compound 50000 nM,0.6818
same,"SARS-CoV-2 spike driven entry, Mean (0 nM = 100)",[6],47.6902 and 69.3145 and 95.2747
same,IC50,"[6]; Caco-2 cells, luciferase 2 days post transduction, read-out: IC50 pseudotyped lentivirus Omicron BA.1",77.6 nM
same,"SARS-CoV-2 spike driven entry, Mean (0 nM = 100)","[6]; Fig. 5e, compound 400 nM, […]",26.7078
same,"SARS-CoV-2 spike driven entry, Mean (0 nM = 100)","[6]; Fig. 5e, compound 2000 nM, […]",11.5722
same,"SARS-CoV-2 spike driven entry, Mean (0 nM = 100)","[6]; Fig. 5e, compound 10000 nM, […]",6.102
same,"SARS-CoV-2 spike driven entry, Mean (0 nM = 100)","[6]; Fig. 5e, compound 50000 nM, […]",4.574
same,IC50,[7]; read-out: IC50 SARS-CoV-2 Alpha,16400 nM
same,IC50,[7]; read-out: IC50 SARS-CoV-2 Alpha (text),16400 nM
same,"Residual TMPRSS2 activity, Mean (0 nM = 100)","[8]; inhibitor 0.0167 nM, 0 min in cell culture medium",104.51
same,"Residual TMPRSS2 activity, Mean (0 nM = 100)","[8]; inhibitor 0.0167 nM, 30 min in cell culture medium",108.071
same,"Residual TMPRSS2 activity, Mean (0 nM = 100)","[8]; inhibitor 0.0167 nM, 60 min in cell culture medium",94.6283
same,"Residual TMPRSS2 activity, Mean (0 nM = 100)","[8]; inhibitor 0.0167 nM, 120 min in cell culture medium",101.99
same,"Residual TMPRSS2 activity, Mean (0 nM = 100)","[8]; inhibitor 0.0167 nM, 24 h in cell culture medium",104.987
same,"Residual TMPRSS2 activity, Mean (0 nM = 100)","[8]; inhibitor 0.0167 nM, 10 d in cell culture medium",98.7798
same,"Residual TMPRSS2 activity, Mean (0 nM = 100)","[8]; inhibitor 0.0167 nM, positive ctrl",112.676
same,"Residual TMPRSS2 activity, Mean (0 nM = 100)","[8]; inhibitor 0.167 nM, 0 min in cell culture medium",93.733
same,"Residual TMPRSS2 activity, Mean (0 nM = 100)","[8]; inhibitor 0.167 nM, 30 min in cell culture medium",95.4083
same,"Residual TMPRSS2 activity, Mean (0 nM = 100)","[8]; inhibitor 0.167 nM, 60 min in cell culture medium",77.5396
same,"Residual TMPRSS2 activity, Mean (0 nM = 100)","[8]; inhibitor 0.167 nM, 120 min in cell culture medium",90.8064
same,"Residual TMPRSS2 activity, Mean (0 nM = 100)","[8]; inhibitor 0.167 nM, 24 h in cell culture medium",102.761
same,"Residual TMPRSS2 activity, Mean (0 nM = 100)","[8]; inhibitor 0.167 nM, 10 d in cell culture medium",99.2067
same,"Residual TMPRSS2 activity, Mean (0 nM = 100)","[8]; inhibitor 0.167 nM, positive ctrl",96.1679
same,"Residual TMPRSS2 activity, Mean (0 nM = 100)","[8]; inhibitor 1.665 nM, 0 min in cell culture medium",49.6948
same,"Residual TMPRSS2 activity, Mean (0 nM = 100)","[8]; inhibitor 1.665 nM, 30 min in cell culture medium",47.8364
same,"Residual TMPRSS2 activity, Mean (0 nM = 100)","[8]; inhibitor 1.665 nM, 60 min in cell culture medium",26.9293
same,"Residual TMPRSS2 activity, Mean (0 nM = 100)","[8]; inhibitor 1.665 nM, 120 min in cell culture medium",28.8645
same,"Residual TMPRSS2 activity, Mean (0 nM = 100)","[8]; inhibitor 1.665 nM, 24 h in cell culture medium",90.2986
same,"Residual TMPRSS2 activity, Mean (0 nM = 100)","[8]; inhibitor 1.665 nM, 10 d in cell culture medium",96.8623
same,"Residual TMPRSS2 activity, Mean (0 nM = 100)","[8]; inhibitor 1.665 nM, positive ctrl",28.3437
same,"Residual TMPRSS2 activity, Mean (0 nM = 100)","[8]; inhibitor 16.65 nM, 0 min in cell culture medium",3.839
same,"Residual TMPRSS2 activity, Mean (0 nM = 100)","[8]; inhibitor 16.65 nM, 30 min in cell culture medium",20.3269
same,"Residual TMPRSS2 activity, Mean (0 nM = 100)","[8]; inhibitor 16.65 nM, 60 min in cell culture medium",1.937
same,"Residual TMPRSS2 activity, Mean (0 nM = 100)","[8]; inhibitor 16.65 nM, 120 min in cell culture medium",2.211
same,"Residual TMPRSS2 activity, Mean (0 nM = 100)","[8]; inhibitor 16.65 nM, 24 h in cell culture medium",42.5007
same,"Residual TMPRSS2 activity, Mean (0 nM = 100)","[8]; inhibitor 16.65 nM, 10 d in cell culture medium",95.3646
same,"Residual TMPRSS2 activity, Mean (0 nM = 100)","[8]; inhibitor 16.65 nM, positive ctrl",3.3573
same,"Residual TMPRSS2 activity, Mean (0 nM = 100)","[8]; inhibitor 166.5 nM, 0 min in cell culture medium",-1.499
same,"Residual TMPRSS2 activity, Mean (0 nM = 100)","[8]; inhibitor 166.5 nM, 30 min in cell culture medium",-2.333
same,"Residual TMPRSS2 activity, Mean (0 nM = 100)","[8]; inhibitor 166.5 nM, 60 min in cell culture medium",-2.406
same,"Residual TMPRSS2 activity, Mean (0 nM = 100)","[8]; inhibitor 166.5 nM, 120 min in cell culture medium",-2.5978
same,"Residual TMPRSS2 activity, Mean (0 nM = 100)","[8]; inhibitor 166.5 nM, 24 h in cell culture medium",5.263
same,"Residual TMPRSS2 activity, Mean (0 nM = 100)","[8]; inhibitor 166.5 nM, 10 d in cell culture medium",97.9296
same,"Residual TMPRSS2 activity, Mean (0 nM = 100)","[8]; inhibitor 166.5 nM, positive ctrl",-2.042
same,"Residual TMPRSS2 activity, Mean (0 nM = 100)","[8]; inhibitor 1665 nM, 0 min in cell culture medium",-4.334
same,"Residual TMPRSS2 activity, Mean (0 nM = 100)","[8]; inhibitor 1665 nM, 30 min in cell culture medium",-4.917
same,"Residual TMPRSS2 activity, Mean (0 nM = 100)","[8]; inhibitor 1665 nM, 60 min in cell culture medium",-4.534
same,"Residual TMPRSS2 activity, Mean (0 nM = 100)","[8]; inhibitor 1665 nM, 120 min in cell culture medium",-4.182
same,"Residual TMPRSS2 activity, Mean (0 nM = 100)","[8]; inhibitor 1665 nM, 24 h in cell culture medium",0.9545
same,"Residual TMPRSS2 activity, Mean (0 nM = 100)","[8]; inhibitor 1665 nM, 10 d in cell culture medium",88.1928
same,"Residual TMPRSS2 activity, Mean (0 nM = 100)","[8]; inhibitor 1665 nM, positive ctrl",-4.2458
